Data reported in article PMC10581251, “Antisense inhibition of RNA polymerase α subunit of Clostridioides difficile” (Microbiology Spectrum, 2023).
Converted amounts (≈) assume the structure as drawn. Where two headings read alike, the source gives them in different places.

Assays:
[1] = test system: C. difficile ATCC BAA 1870; experiment: MIC/MBC broth microdilution, C. difficile ATCC BAA 1870; format: cell-based, Clostridioides difficile; conditions: for MIC: broth microdilution, anaerobic 48 hours 37°C, visual, read-out: MIC; for MBC: plated on BHIS agar, read-out: MBC
Procedure: (§1) The susceptibility of C. difficile isolates to the CPP-PNA conjugates or to the CPP alone was determined in vitro as described before with slight modifications ([43] [–] [45]). Briefly, the CPP-PNA conjugates, the CPP alone, and the antibiotics vancomycin and fidaxomicin were added in triplicate to the first row of ultra-low adhesion 96-well plates (Corning Inc., Corning, NY). A suspension of C. difficile equivalent to 0.5 McFarland solution was added to Mueller-Hilton II broth, which was then added to the ultra-low adhesion plate and then serially diluted. The plates were incubated anaerobically for 48 hours at 37°C. The minimum inhibitory concentration was defined as the lowest concentration of the CPP-PNA conjugate that could inhibit bacterial growth when observed visually.
(§2) The MIC and MBC experiments were repeated twice.

[2] = test system: C. difficile ATCC 43255; experiment: MIC/MBC broth microdilution, C. difficile ATCC 43255; format: cell-based, Clostridioides difficile; conditions: for MIC: broth microdilution, anaerobic 48 hours 37°C, visual, read-out: MIC; for MBC: plated on BHIS agar, read-out: MBC
Procedure: as §1, §2

[3] = test system: C. difficile 1071; experiment: MIC/MBC broth microdilution, C. difficile 1071; format: cell-based, Clostridioides difficile; conditions: for MIC: broth microdilution, anaerobic 48 hours 37°C, visual, read-out: MIC; for MBC: plated on BHIS agar, read-out: MBC
Procedure: as §1, §2

[4] = test system: C. difficile 1079; experiment: MIC/MBC broth microdilution, C. difficile 1079; format: cell-based, Clostridioides difficile; conditions: for MIC: broth microdilution, anaerobic 48 hours 37°C, visual, read-out: MIC; for MBC: plated on BHIS agar, read-out: MBC
Procedure: as §1, §2

[5] = test system: C. difficile 1082; experiment: MIC/MBC broth microdilution, C. difficile 1082; format: cell-based, Clostridioides difficile; conditions: for MIC: broth microdilution, anaerobic 48 hours 37°C, visual, read-out: MIC; for MBC: plated on BHIS agar, read-out: MBC
Procedure: as §1, §2

[6] = test system: C. difficile 630; experiment: Killing kinetics (time-kill assay); format: cell-based, Clostridioides difficile; conditions: 1× MIC, inoculum ~5 × 10^5 CFU/mL, triplicate
Procedure: The killing kinetics of the PNA construct was determined as described previously ([45] [–] [47]). Briefly, an overnight culture of C. difficile 630 was diluted 1:50 into fresh Mueller Hilton II broth (~10^5 CFU/mL) and added in triplicate to low adhesion microcentrifuge tubes containing either sterile water, the rpoA-TAT construct (1× MIC), or the positive controls vancomycin or fidaxomicin (1× MIC). The number of viable bacteria in each treatment group was determined by taking aliquots at 0, 4, 8, 12, 16, and 24 hours; these aliquots were then serially diluted and plated on BHIS agar plates. The plates were incubated anaerobically, and the number of colony-forming units for each treatment group was recorded the following day. The experiment was repeated twice.

[7] = test system: C. difficile 630; experiment: Effect of high bacterial inoculum on activity; format: cell-based, Clostridioides difficile; conditions: 8 hours; for Log reduction: vs no treatment
Procedure: The in vitro efficacy of the PNA constructs against a high inoculum size of C. difficile 630 was determined. Briefly, the PNA constructs and control antibiotics, at a concentration of 1× MIC, were added in triplicate to low adhesion microcentrifuge tubes (Corning Inc., Corning, NY). A high inoculum of C. difficile suspension equivalent to ~5 × 10^6 and ~5 × 10^7 cells was added to the tubes, which were incubated anaerobically at 37°C. The number of viable bacteria in each treatment group was determined by serial dilution and plating on BHIS agar plates at 8 hours and 24 hours post-incubation, respectively. The effect of a high inoculum on the activity of the PNA construct was repeated twice.

[8] = test system: C. difficile ATCC 630; experiment: Effect of pH on MIC/MBC, C. difficile ATCC 630; format: cell-based, Clostridioides difficile; conditions: for MBC: read-out: MBC; for MIC: read-out: MIC
Procedure: as §1, §2
The susceptibility of C. difficile (ATCC 630 and ATCC BAA 1870) to the rpoA-TAT conjugate was evaluated over a pH range of 6 to 9 using the broth microdilution method ([43], [46] [–] [48]). The desired pH for susceptibility testing was attained by the addition of either 0.1 N HCL or 1 N NaOH to the media. The experiment was repeated twice.

[9] = test system: spore formation by C. difficile ATCC 630; experiment: Spore formation inhibition; format: cell-based, Clostridioides difficile; conditions: 0.5× MIC, 12 hours, compared to negative control (no treatment); for log reduction in the spore count: triplicate
Procedure: After the incubation period, the total bacterial count for each treatment group was determined by serial dilution and plating on BHIS agar plates supplemented with 0.1% taurocholic acid. To determine the presence of spores, the remaining bacterial culture from each treatment group was heated at 65°C for 30 minutes to ensure all vegetative cells were killed. The bacterial culture from each treatment group was then serially diluted and plated on BHIS agar plates supplemented with 0.1% taurocholic acid. The plates were incubated overnight, and the CFU counts for each treatment group were determined the following day.

[10] = test system: Lactobacillus brevis ATCC 14869; experiment: MIC gut microflora, Lactobacillus brevis; format: cell-based; conditions: broth microdilution, MRS broth, 48 hours, read-out: MIC
Procedure: (§3) The susceptibility of gut microflora strains to the rpoA-TAT conjugate was determined using the broth microdilution assay, as described above. Briefly, bacterial suspensions of Bifidobacterium sp. and Bacteroides sp., in supplemented BHIS broth, and Lactobacilli strains, in MRS broth, were added to ultra-low adhesion 96-well plates and serially diluted. The MIC was recorded after 48 hours.

[11] = test system: Lactobacillus gasseri ATCC 19992; experiment: MIC gut microflora, Lactobacillus gasseri; format: cell-based; conditions: broth microdilution, MRS broth, 48 hours, read-out: MIC
Procedure: as §3

[12] = test system: Lactobacillus rhamnosus ATCC 53103; experiment: MIC gut microflora, Lactobacillus rhamnosus; format: cell-based; conditions: broth microdilution, MRS broth, 48 hours, read-out: MIC
Procedure: as §3

[13] = test system: Bacteroides fragilis HM 714; experiment: MIC gut microflora, Bacteroides fragilis; format: cell-based; conditions: broth microdilution, supplemented BHIS broth, 48 hours, read-out: MIC
Procedure: as §3

[14] = test system: Bifidobacterium longum subsp. longum HM 846; experiment: MIC gut microflora, Bifidobacterium longum; format: cell-based
Procedure: as §3

[15] = broth microdilution, supplemented BHIS broth, 48 hours
[16] = Clostridioides difficile, BAA1870
[17] = Clostridioides difficile, ATCC43255
[18] = Clostridioides difficile, ATCC630, pH 6
[19] = Clostridioides difficile, ATCC630, pH 7
[20] = Clostridioides difficile, ATCC630, pH 8

GRKKKRRQRRRYK-O-CATGGACAAAAC-NH2 [rpoA-TAT, PNA oligomer antisense to C. difficile rpoA covalently conjugated to the TAT cell penetrating peptide]
MIC [1]: 8 µM
MBC [1]: 8 µM
MIC [2]: 8 µM
MBC [2]: 8 µM
MIC [3]: 8 µM
MBC [3]: 8 µM
MIC [4]: 8 µM
MBC [4]: 8 µM
MIC [5]: 4 µM
MBC [5]: 4 µM
time to eradication of bacteria (below the limit of detection, 250 CFU/mL) [6]: ≤ 8 h
Log CFU ([7]; inoculum 5 × 10^6, 1× MIC): 0
Log reduction ([7]; inoculum 5 × 10^6, 1× MIC): 6.37
Log CFU ([7]; inoculum 5 × 10^7, 1× MIC): 0
Log reduction ([7]; inoculum 5 × 10^7, 1× MIC): 7.77
MBC ([8]; pH 6): 8 µM
MIC ([8]; pH 6): 8 µM
MBC ([8]; pH 7): 8 µM
MIC ([8]; pH 7): 8 µM
MBC ([8]; pH 8): 8 µM
MIC ([8]; pH 8): 8 µM
reduction in the spore count [9]: 99.9%
log reduction in the spore count [9]: 3.44 log
MIC [10]: >32 µM
MIC [11]: >32 µM
MIC [12]: >32 µM
MIC [13]: >32 µM
MIC [14, 15]: >32 µM

CCc1c(Cl)c(O)c(Cl)c(O)c1C(=O)O[C@H]1[C@H](O)[C@H](OC)[C@H](OC/C2=C\C=C\C[C@H](O)/C(C)=C/[C@H](CC)[C@@H](O[C@@H]3OC(C)(C)[C@@H](OC(=O)C(C)C)[C@H](O)[C@@H]3O)/C(C)=C/C(C)=C/C[C@@H]([C@@H](C)O)OC2=O)O[C@@H]1C [Fidaxomicin, fidaxomicin]
MIC [1, 16]: 1 µM (≈ 1.06 µg/mL)
MBC [1, 16]: 1 µM (≈ 1.06 µg/mL)
MIC [2, 17]: 0.5 µM (≈ 0.529 µg/mL)
MBC [2, 17]: 0.5 µM (≈ 0.529 µg/mL)
MIC ([3]; Clostridioides difficile, 1071): 1 µM (≈ 1.06 µg/mL)
MBC ([3]; Clostridioides difficile, 1071): 1 µM (≈ 1.06 µg/mL)
MIC ([4]; Clostridioides difficile, 1079): 2 µM (≈ 2.12 µg/mL)
MBC ([4]; Clostridioides difficile, 1079): 2 µM (≈ 2.12 µg/mL)
MIC ([5]; Clostridioides difficile, 1082): 2 µM (≈ 2.12 µg/mL)
MBC ([5]; Clostridioides difficile, 1082): 2 µM (≈ 2.12 µg/mL)
time to eradication of bacteria (below the limit of detection, 250 CFU/mL) [6]: ≤ 12 h
Log CFU ([7]; inoculum 5 × 10^6, 1× MIC): 0
Log reduction ([7]; inoculum 5 × 10^6, 1× MIC): 6.37
Log CFU ([7]; inoculum 5 × 10^7, 1× MIC): 0
Log reduction ([7]; inoculum 5 × 10^7, 1× MIC): 7.77
MBC [8, 18]: 1 µM (≈ 1.06 µg/mL)
MIC [8, 18]: 0.5 µM (≈ 0.529 µg/mL)
MBC [8, 19]: 1 µM (≈ 1.06 µg/mL)
MIC [8, 19]: 0.5 µM (≈ 0.529 µg/mL)
MBC [8, 20]: 4 µM (≈ 4.23 µg/mL)
MIC [8, 20]: 1 µM (≈ 1.06 µg/mL)
reduction in the spore count [9]: 99.9%
log reduction in the spore count [9]: 3.44 log
MIC ([10]; Levilactobacillus brevis, ATCC14869): > 2 µM
MIC ([11]; Lactobacillus gasseri, ATCC19992): > 2 µM
MIC ([12]; Lacticaseibacillus rhamnosus, ATCC53103): > 2 µM
MIC ([13]; Bacteroides fragilis, HM714): > 2 µM
MIC ([14]; Bifidobacterium longum, 48 h): 0.125 µM (≈ 0.132 µg/mL)
MIC [14, 15]: 0.125 µM (≈ 0.132 µg/mL)
